Laboratory results from US5698669A, “Tri-arginine insulins” (Eli Lilly and Company, priority 1995, dated 1997).

How the values were obtained:
[1] = tested on: New Zealand White rabbits; experiment: Blood glucose in fasted rabbits after subcutaneous injection of 40 U/ml insulin solutions; type: in vivo, rabbit; settings: for Percent of Original Blood Glucose: added zinc 0 mg/ml, 0.2 U/kg s.c., rabbits, n = 10; for hypoglycemic activity: statement in words, animal model
Protocol: Solutions were prepared containing various amounts of zinc (0-2.4 mg/ml) in the form of zinc chloride. Glacial acetic acid was used to solublize each of the solutions at a final pH range of pH 4-6.
New Zealand White rabbits, mostly female, all weighing 2.7-4 kg, 0.5-4 years of age and fasted 16 hours prior to administration of sample were used for testing.
At various times, 100 μl volumes of blood were obtained from the marginal ear veins, mixed with 900 μl volumes of anticoagulant (EDTA-sodium fluoride) and analyzed for glucose content. The glucose values were standardized to reflect percent of original blood glucose measured prior to sample injection.

human proinsulin (human) = human proinsulin (human) (UniProt P01308)
[2] = standardized value used for formulating 40 U/ml solutions; cited from earlier work
[3] = molecular target: des(64) human proinsulin (human) (UniProt P01308)

Which “Percent of Original Blood Glucose” value ([1]; 4 hours after injection) does the source give for “Des(64) HPI: split(64) proinsulin wherein Lys-64 is removed” here?
The value was 99.6%.

And the “Percent of Original Blood Glucose” value ([1]; 6 hours after injection)?
The value was 90.0%.

And the hypoglycemic activity [1]?
The hypoglycemic activity was “hypoglycemic activity of its own”.

For “Pseudomonas aeruginosa Endopeptidase-Lys-C (Promega) (enzyme)”, which conversion of human proinsulin to split(64) proinsulin (preparative HPLC, yield of product) (human proinsulin (human)) is on record?
Its conversion of human proinsulin to split(64) proinsulin (preparative HPLC, yield of product) is 237 mg.

Which hypoglycemic activity [1] does the source give for “Split(64) HPI: human proinsulin wherein the peptide bond between Lys-64 and Arg-65 is broken” here?
The hypoglycemic activity was “hypoglycemic activity of its own”.

Which “standardized value (potency per mass)” value [2] does the source give for “human insulin: natural human insulin, reference for biopotency” here?
The value was 28.85 U/mg.

With “pork trypsin (Sigma) (from UniProt P00761) (enzyme)” as the substance, how does the conversion of des(64) human proinsulin to tri-arg insulin (preparative HPLC, yield of product) [3] read?
Its conversion of des(64) human proinsulin to tri-arg insulin (preparative HPLC, yield of product) is 0.94 g.
